Results: US8362031B2, “Lonidamine analogues and treatment of polycystic kidney disease” (University of Kansas, priority 2004, dated 2013)

Tested on: ADPKD cells
Test: Mitotic index of ADPKD cells
Assay type: cell-based, human
Conditions: untreated controls 4.1%
Protocol: For the […] shown in FIG. 10C, 5×10^3 ADPKD cells were plated in a 4-well chamber slide. After 24 hours, medium was changed to include 5% FBS. Cells were treated with increasing concentrations of GMZ for 16 hours, fixed with 4% paraformaldehyde and permeabilized with 0.2% Triton-X100. Cells were mounted with DAPI-containing mounting medium and observed by fluorescence microscopy. Eight to ten separate fields were examined at 10× magnification and the number of mitotic figures (nuclei) were counted and expressed as a percentage of the total number of nuclei per field. Statistical analysis was done to compare the GMZ-treated cells to untreated cells at each time point using One-way ANOVA and the Tukey HSD test for pair-wise comparisons.

What does the source list for `O=C(O)CCc1nn(Cc2ccc(Cl)cc2Cl)c2cc(C(F)(F)F)ccc12` [GMZ, 3-[1-(2,4-dichlorobenzyl)-6-trifluoromethyl-1H-indazol-3-yl]-propionic acid]?
mitotic index (50 μM for 16 h): 2.6%; mitotic index (100 μM for 16 h, p<0.01): 1.7%
